Experimental data published in US10648968B2, “In vitro test system to evaluate xenobiotics as immune-modulators of drug transport and metabolism in human hepatocytes” (XenoTech, LLC, priority 2011, dated 2020).

Legend:
[1] = system: CYP1A2; conditions: co-cultures of hepatocyte and Kupffer cells, three livers, treated daily for 72 hours; phenacetin O-dealkylation by LC/MS/MS
[2] = system: CYP3A4; conditions: co-cultures of hepatocyte and Kupffer cells, three livers, treated daily for 72 hours; testosterone 6β-hydroxylation by LC/MS/MS
[3] = in humans following LPS treatment; correlated with changes in TNF and IL-6; cited from earlier work

With lipopolysaccharides [LPS] as the substance, how does the CYP1A2 activity [1] read?
The CYP1A2 activity was “decrease”.

What about the CYP3A4 activity [2] of the same substance?
Its CYP3A4 activity is “decrease”.

What about the “antipyrine (AP) clearance” value [3] of the same substance?
The value was “changes”.
